Measured values from patent US8642622B2, “Piperidinyl compound as a modulator of chemokine receptor activity” (Bristol-Myers Squibb Company, priority 2010, dated 2014).

Experiments:
[1] = Human liver microsomal metabolism, Assay Conditions A; type: in vitro ADME; conditions: 0.5 μM compound, 10 minutes, 37° C.
Protocol: Test compound is received as a 3.5 mM stock solution in 100 percent DMSO. Compound is diluted to create a 50 μM acetonitrile (ACN) solution containing 1.4% DMSO, which is then used as a 100× stock for incubation with microsomes. Each compound is tested in duplicate separately in each of three species in the Metabolic Stability-Human, Rat, and Mouse assay suite or as individual species in the Metabolic Stability-Dog or Metabolic Stability-Monkey suites. Compound, NADPH and liver microsome solutions are combined for incubation in three steps:
152 μL of liver microsome suspension, protein concentration of 1.1 mg/mL in 100 mM NaPi, pH 7.4, 6.6 mM MgCl2 buffer, is pre-warmed at 37° C.
• 1) 1.7 μL of 50 μM compound (98.6% ACN, 1.4% DMSO) is added to the same tube and pre-incubated at 37° C. for 5 minutes. • 2) The reaction is initiated by the addition of 17 μL of pre-warmed 10 mM NADPH solution in 100 mM NaPi, pH 7.4. • 3) Reaction components are mixed well, and 75 μL are immediately transferred into 150 μl quench/stop solution (zero-time point, To). Reactions are incubated at 37° C. for 10 minutes and then an additional 75 μL aliquot is transferred into 150 μL quench solution. Acetonitrile containing 100 μM DMN (a UV standard for injection quality control), is used as the quench solution to terminate metabolic reactions. • 4) Quenched mixtures are centrifuged at 1500 rpm (˜500×g) in an Allegra X-12 centrifuge, SX4750 rotor (Beckman Coulter Inc., Fullerton, Calif.) for fifteen minutes to pellet denatured microsomes. A volume of 90 μL of supernatant extract, containing the mixture of parent compound and its metabolites, is then transferred to a separate 96-well plate for UV-LC/MS-MS analysis to determine the percent of parent compound that is remaining in the mixture.

[2] = Single-dose pharmacokinetics in rats; type: in vivo; conditions: male, Sprague-Dawley, rat, plasma; for bioavailability: po
Protocol: Serial blood samples were collected for all studies from the jugular vein at various time points post dose (0.17 (or 0.25 for oral), 0.5, 0.75, 1, 2, 4, 6, 8 and 24 h, for example). Plasma samples were analyzed by LC-MS/MS.
Additional studies evaluating suspensions of crystalline drug substance in aqueous medium were performed as described above.

[3] = Human liver microsomal metabolism, Assay Conditions B; type: in vitro ADME
Protocol: Test compound is received as 20 mM in DMSO. Compound is diluted to create a 300 μM acetonitrile (ACN) solution containing 1.5% DMSO, which is then used as a 100× stock for incubation with microsomes. Each compound is tested in duplicate separately in each of three species in the Metabolic Stability-Human, Rat, Mouse assay suite or individual species in the Metabolic Stability-Dog or Metabolic Stability-Monkey suites. Compound, NADPH and liver microsome solutions are combined for incubation in three steps: • 1. 450 μL of liver microsome suspension, protein concentration of 1 mg/mL in 100 mM NaPi, pH 7.4, 6.6 mM MgCl2 buffer, are pre-warmed at 37° C. • 2. […] of 300 μM compound (98.5% CAN, 1.5% DMSO) is added to the same tube. • 3. The reaction is initiated by the addition of 50 μL of pre-warmed 5 mM NADPH solution in 100 mM NaPi, pH 7.4.
Reaction components are mixed well and 150 μL removed to quench/stop solution immediately for the zero-minute time point. Reactions are incubated at 37° C. for 10 minutes and then an additional 150 μL removed from incubation. Aliquots removed are combined with 300 μL ACN which contains 100 μM DMN as a UV standard for detection.
Quenched mixtures are centrifuged at 1500 rpm (˜500×g) in an Allegra X-12 centrifuge, SX4750 rotor (Beckman Coulter Inc., Fullerton, Calif.) for fifteen minutes to pellet denatured microsomes. A volume of 110 μl of supernatant extract, containing the mixture of parent compound and its metabolites, is then transferred to a separate 96-well plate for UV-LC/MS-MS analysis to determine the percent of parent compound that is remaining in the mixture.

[4] = Electrocardiography in anesthetized rabbits (rabbit in vivo EP effect)
Protocol: A dose-response study of test compound was conducted in anesthetized rabbits to assess the cardiac electrophysiologic profile established in the cellular ion channel assays.
Experiments were performed in propofol-fentanyl anesthetized closed-chest male rabbits. A body surface electrocardiogram (ECG) and an intra-cardiac His-bundle electrogram were continuously monitored and recorded during the studies, using a PoNeMah system and a Prucka electrophysiological recording system, respectively. Test compound was prepared on the day of study in a vehicle of PEG400:ethanol:water (1:1:1) at a dosing concentration of 30 mg/mL. Test compound (n=3) or vehicle (n=3) was given intravenously over 5 minutes via an infusion pump at incremental doses of 3, 10 and 30 mg/kg. The interval between doses was 10 minutes, allowing for a 5-minute test agent infusion and a 5-minute rest period. Blood was sampled at baseline (pre-drug infusion) and immediately at the end of each infusion. For the 30 mg/kg dose, additional blood samples were taken at 10, 20 and 30 minutes after the end of infusion.
PR interval, QRS duration and QT interval were averaged from a 1 minute ECG recording period at time of blood sampling. QT interval was corrected for heart rate effects using both Fridericia (QTcf) and Van der Water (QTcv) formulae. AH and HV intervals, representing A-V node conduction and His-Purkinje conduction, respectively, were assessed by manual measurements from the His-bundle electrogram. Data were expressed as percent change from pre-drug baseline (mean±SEM) for PR, QRS, AH and HV intervals as well as delta change from the pre-drug infusion baseline (mean±SEM) for QTc intervals. Changes of 10% in PR, QRS, and AH intervals, and 20% in HV interval, as well as >10 ms in QTc interval are considered significant based on experience with the model.

[5] = Single-dose pharmacokinetics in dogs; type: in vivo; conditions: dog
Protocol: Serial blood samples were collected for all studies at various time points post dose (0.17 (or 0.25 for oral), 0.5, 0.75, 1, 2, 4, 6, 8 and 24 h, for example). Plasma samples were analyzed by LC-MS/MS.

Protein binding, human = type: in vitro ADME

For CC(C)COC(=O)N[C@@H](C(=O)N1CC[C@](O)(c2ccc(Cl)cc2)C(C)(C)C1)C(C)C [Example 1083], the “Human Liver Microsomal Metabolism % remaining (Assay Conditions A)” value [1] was 13% (A).
With CC(C)[C@@H](NC(=O)[C@@H]1CCC(F)(F)C1)C(=O)N1CC[C@](O)(c2ccc(Cl)cc2)[C@@](C)(O)C1 [Compound I, (R)—N—((R)-1-((3S,4S)-4-(4-chlorophenyl)-3,4-dihydroxy-3-methylpiperidin-1-yl)-3-methyl-1-oxobutan-2-yl)-3,3-difluorocyclopentanecarboxamide] the clearance ([2]; intravenous) was 1.56 L/h/kg, the bioavailability ([2]; crystalline suspension in aqueous medium, read-out: Relative bioavailability when dosed as a crystalline suspension) was 84% and the bioavailability ([2]; oral solution, read-out: Rat oral bioavailability when dosed as solution) was 43%. For the same compound, the “Human Liver Microsomal Metabolism % remaining (Assay Conditions B)” value ([3]; 3 μM compound, 10 minutes, 37° C.) was 96% (B), the “% of compound remaining in the human liver microsome metabolism assay” value ([3]; assay conditions not given) was 100% and the “Cmax: Free drug (at NOEL dose)” value ([4]; at NOEL dose, free drug) was 52 µM. The “Cmax: Free drug (at QT effect dose)” value ([4]; at QT effect dose, free drug) was 52 µM, the NOEL dose ([4]; i.v. infusion) was 30 mg/kg and the “QT effect Dose” value ([4]; i.v. infusion 3, 10, 30 mg/kg) was > 30 mg/kg. The “QTcf, delta” value ([4]; i.v. infusion, change from pre-drug baseline) was “No effect”, the Cmax ([4]; male, blood, iv, at QT effect dose, total drug) was 96 µM and the “decrease of in vivo clearance (CL) relative to the compared compounds” value [5] was 8-13 fold. The clearance ([5]; male, beagle, plasma, intravenous) was 0.036 L/h/kg, the bioavailability ([5]; male, beagle, plasma, oral solution, read-out: dog oral bioavailability when dosed as solution) was 82% and the fraction unbound (Protein binding, human) was 0.32.
